Test results as given in ChEMBL document CHEMBL1148824, “Quinazolinone derivatives as orally available ghrelin receptor antagonists for the treatment of diabetes and obesity” (J Med Chem, 2007).
pKi: −log10 of the molar value.

Legend:
Ghrelin receptor = Ghrelin receptor (Ovis aries, UniProt Q8MHZ5); test: Displacement of [125I]ghrelin from ovine recombinant GHSR1a expressed in HEK293F cells after 6 hrs by scintillation proximity assay; assay type: cell-based
[1] = Cmax in Wistar rat at 10 mg/kg, po; assay type: ADME, organism-based; set-up: dose 10 mg/kg, route oral; conditions: in vivo
[2] = Bioavailability in Wistar rat plasma at 3 mg/kg, po; assay type: ADME, organism-based
[3] = Bioavailability in Wistar rat plasma at 1 mg/kg, iv; assay type: ADME, organism-based

Sequence of Ghrelin receptor (Q8MHZ5 whole entry): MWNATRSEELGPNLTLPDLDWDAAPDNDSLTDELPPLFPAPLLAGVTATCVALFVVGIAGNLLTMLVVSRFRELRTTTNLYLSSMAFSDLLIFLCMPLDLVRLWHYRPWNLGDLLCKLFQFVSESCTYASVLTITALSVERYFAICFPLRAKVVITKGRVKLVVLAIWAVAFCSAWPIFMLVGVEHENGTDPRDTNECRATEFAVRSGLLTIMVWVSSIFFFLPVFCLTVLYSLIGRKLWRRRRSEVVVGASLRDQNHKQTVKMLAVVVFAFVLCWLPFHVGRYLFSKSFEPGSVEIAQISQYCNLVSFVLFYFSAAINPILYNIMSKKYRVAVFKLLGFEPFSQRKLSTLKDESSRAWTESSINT

pKi (Ghrelin receptor) | Cmax [1] | bioavailability [2] | bioavailability [3] | Structure (SMILES)
7.70 | < 20 nM |  |  | CCCCN(C)c1ccc2nc(-c3ccccc3OC)n(CC3CCCN(CC)C3)c(=O)c2c1 (centres undefined)
 |  | 29% | 29% | CCN1CCCC(Cn2c(-c3ccccc3C)nc3ccc(-c4ccc(Cl)cc4)cc3c2=O)C1.Cl (centres undefined)
